{
  "source": "patent US11920165B2",
  "about": "“Cultivation of human noroviruses” (Baylor College of Medicine, priority 2015, dated 2024)",
  "key": {"TCH04-577 GII.3 HuNoV [1]": {"test_system": "TCH04-577 GII.3 HuNoV", "experiment": "microbe, parasite or virus in culture", "settings": "Norovirus, in Homo sapiens, 72 h, read-out: Fold increase in viral genome copies compared to no bile (0-72 hpi)", "experimental": "(§2) At 72 hours post infection, the cells and media were harvested and viral RNA was quantified by qRT-PCR. Each bile acid was added at a concentration of 0.5 mM."}, "TCH04-577 GII.3 HuNoV [2]": {"test_system": "TCH04-577 GII.3 HuNoV", "settings": "J2 enteroids", "experimental": "as §2"}, "TCH04-577 GII.3 HuNoV [3]": {"test_system": "TCH04-577 GII.3 HuNoV", "experiment": "GII.3 replication in J2 jHIE monolayers with ceramide and GCDCA", "type": "cell-based, human norovirus", "settings": "ceramide alone; 24 hpi", "protocol": "FIG. 32. At least one lipid, ceramide, enhances GII.3 HuNoV replication alone or in combination with the bile acid GCDCA.J2 jHIE monolayers (p.12) were inoculated with 4.3×105 genome equivalents of TCH04-577 for 1 hr, and after washing twice with CMGF(−) media to remove unbound virus, culture continued in differentiation medium for 24 hrs. The amount of infectious virus was quantified after the washing at 1 hpi (black bars) and at 24 hpi (gray bars). Additives were added to the medium during and post inoculation.\n(§1) FIG. 33. Ceramide alone, or in combination with the bile acid GCDCA, enhances GII.3 but not GII.4 HuNoV replication. J2 jHIE monolayers (p.23) were inoculated with 4.3×105 or 9×105 genome equivalents of TCH04-577 or TCH12-580, respectively, for 1 hr and, and after washing twice with CMGF(−) media to remove unbound virus, culture continued in differentiation medium for 72 hrs. The amount of infectious virus was quantified after the washing at 1 hpi (black bars) and 72 hpi (gray bars). Additives (500 μM GCDCA or 500 μM GCDCA+50 μM C2-ceramide) were added to the medium during and post inoculation. Error bars denote standard deviation. p<0.01 comparing genome equivalents at 72 hpi between GCDCA and ceramide+GCDCA."}, "GII.4 HuNoV": {"test_system": "GII.4 HuNoV", "experiment": "GII.4 HuNoV replication in jejunal HIE monolayers with bile, bile fractions or additives (RT-qPCR)", "type": "cell-based, human norovirus", "settings": "GCDCA bile acid", "protocol": "FIGS. 26A-26D. Bile is not required but enhances GII.4 HuNoV replication. […] The monolayers were inoculated with 5.5×10^5 genome equivalents of (FIG. 26A) GII.4/2006b-3 or, (FIG. 26B) GII.4/2009, or (FIGS. 26C and 26D) GII.4/2012-1 in the absence or presence of the indicated bile for 1 hour at 37° C.\nas §1\nOne can analyze these samples by mass spectroscopy to determine the bile acid, lipid, fatty acid and/or cholesterol content. Bile was also fractionated based on filtration through different molecular cut-off filters. […]"}, "[4]": {"test_system": "porcine enteric calicivirus", "settings": "Flynn and Saif, 1988; Chang et al., 2004; cited from earlier work"}, "TCH04-577 GII.3 HuNoV [5]": {"test_system": "TCH04-577 GII.3 HuNoV", "experiment": "GII.3 replication in jejunal enteroids with acid sphingomyelinase inhibitors (RT-qPCR)", "type": "cell-based, human norovirus", "settings": "inhibitor present 1 hr before and during 24 hrs", "protocol": "FIG. 34. Acid sphingomyelinase (ASM) inhibitors suppress GII.3 HuNoV replication. Jejunal enteroids were pretreated with inhibitors for 1 hr and inoculated with TCH04-577 for 1 hr, washed twice with CMGF(−) and cultured for 24 hrs in the presence of the inhibitors. RNA was extracted from cells and medium at 1 and 24 hpi and genome equivalents were analyzed by RT-qPCR.\nAcid sphingomyelinase (ASM) that converts sphingomyelin into ceramide is involved in HuNoV infectivity, in at least certain embodiments."}, "TCH11-64 GII.4 HuNoV": {"test_system": "TCH11-64 GII.4 HuNoV", "experiment": "GII.4 infection of jejunal enteroids after cholesterol extraction or trypsin treatment (VP1-positive cells)", "type": "cell-based, human norovirus", "settings": "24 hpi", "protocol": "FIG. 35. Cholesterol extraction using methyl-β-cyclodextrin or treatment of cells with trypsin reduces HuNoV infection. Jejunal enteroids were untreated or treated for 45 min with methyl-β-cyclodextrin (MβCD) or 15 min with trypsin. Trypsin was inhibited with aprotinin and then the monolayer was washed prior to infection. MβCD was present during and after infection. Enteroids were infected with 3×10^6 genome equivalents of TCH11-64 GII.4 HuNoV. Enteroid monolayers were fixed at 24 hpi, VP1 detected by immunofluorescence and the number of VP1-positive cells counted per well.\nIn specific embodiments of the disclosure, HuNoV use a proteinaceous receptor in lipid rafts for infection. Lipid rafts are specialized domains of the cell membrane and are central for the spatial organization of receptors and signaling molecules. […] Identification of the proteinaceous molecule(s) that function as the receptor for HuNoV replication will allow production of new, simple cell systems that express this receptor and that will support HuNoV replication."}, "GII.4/2012-1 HuNoV": {"test_system": "GII.4/2012-1 HuNoV", "experiment": "GII.4/2012-1 replication and CPE in jejunal HIEs with polymyxin B-treated stool filtrate", "type": "cell-based, human norovirus", "settings": "inoculation with polymyxin B-treated samples", "protocol": "FIGS. 21A-21C. […] (FIG. 21A) GII.4/2012-1 stool filtrates were not treated (−) or treated (+) with 100 μg/m polymyxin B for 24 hours. Then, 9×10^5 genome equivalents of the filtrates were inoculated onto each jejunal HIE monolayer for 1 hour. The monolayers were washed twice with CMGF(−) medium and cultured in differentiation medium. […] Error bars denote standard deviation. (FIG. 21B) Gamma irradiated or non-irradiated GII.4/2012-1 stool filtrates were either not treated (−) or treated (+) with polymyxin B for 24 hours. Jejunal HIE monolayers were inoculated with […] for 1 hour as described above. […]\nWe next evaluated the growth characteristics of HuNoV infection by assessing cytopathic effect (CPE), antigen detection, and the kinetics of infection. […] Two particle sizes were detected (FIG. 15D), with particles of the expected size (31.6+/−3.3 nm) and some smaller particles (FIG. 15D inset, 18.5+/−3.7 nm). […] By Western blot analysis, nonstructural polyprotein synthesis and processing (as evidenced by the detection of several VPg-containing polyprotein processing intermediates) and capsid protein (VP1) production were first detected at 12 hpi in infected cells but not at 1 or 6 hpi or in mock-infected cells (FIG. 15E). Consistent with the production of virus particles (FIG. 15D), VP1 was detected in the culture supernatant by 24 hpi (FIG. 15E). […]"}, "[6]": {"test_system": "GI.1, GII.3, GII.17 HuNoVs", "experiment": "Replication of other HuNoV strains in jejunal HIE monolayers with components of the intestinal milieu", "settings": "GI.1, GII.3, GII.17 in jejunal HIE monolayers", "experimental": "The monolayers were washed three times with CMGF(−) medium and cultured for the indicated days in differentiation medium in the absence (0%) or presence of the indicated concentrations of bile. At 1 hour and the indicated time post-inoculation, the cells and medium were harvested, RNA extracted and viral genome equivalents quantified by RT-qPCR. Data represent the mean of three wells for each treatment and time point. Error bars denote standard deviation. *, P<0.05 comparing genome equivalents from 1 hpi to the indicated time points.\nWe next tested whether monolayer cultures of jejunal HIEs could support replication of other HuNoV strains (GI.1, GII.3, GII.17). […] Consequently, several components of the intestinal milieu were assessed for their ability to promote replication of these HuNoVs in HIE monolayers."}},
  "note": "Read-outs that look alike come from different tables or passages of the source.",
  "data": [
    {"molecule": "C[C@H](CCC(=O)O)[C@H]1CC[C@H]2[C@@H]3[C@H](O)C[C@@H]4C[C@H](O)CC[C@]4(C)[C@H]3C[C@H](O)[C@]12C", "note": "[CA, cholic acid]", "values": [
      {"measurement": "fold induction at 500 µM", "setting": "TCH04-577 GII.3 HuNoV [1]", "value": "49 to 63"}
    ]},
    {"molecule": "C[C@H](CCC(=O)O)[C@H]1CC[C@H]2[C@@H]3[C@H](O)C[C@@H]4C[C@H](O)CC[C@]4(C)[C@H]3CC[C@]12C", "note": "[CDCA, chenodeoxycholic acid]", "values": [
      {"measurement": "Fold increase in viral genome copies compared to no bile (0-72 hpi)", "setting": "TCH04-577 GII.3 HuNoV [2]; bile acid 100 uM", "value": "no increase"}
    ]},
    {"molecule": "CCCCCCCCCCCCC/C=C/[C@@H](O)[C@H](CO)NC(C)=O", "note": "[Ceramide, C2-ceramide]", "values": [
      {"measurement": "GII.3 replication", "setting": "TCH04-577 GII.3 HuNoV [3]", "value": "enhances"}
    ]},
    {"molecule": "C[C@H](CCC(=O)NCC(=O)O)[C@H]1CC[C@H]2[C@@H]3[C@H](O)C[C@@H]4C[C@H](O)CC[C@]4(C)[C@H]3C[C@H](O)[C@]12C", "note": "[GCA, Glycocholic acid]", "values": [
      {"measurement": "fold induction at 500 µM", "setting": "TCH04-577 GII.3 HuNoV [1]", "value": 48}
    ]},
    {"molecule": "CC(CCC(=O)NCC(=O)O)C1CCC2C3C(O)CC4CC(O)CCC4(C)C3CCC12C", "note": "(stereo not shown) [GCDCA, Glycochenodeoxycholic acid]", "values": [
      {"measurement": "GII.4 replication", "setting": "GII.4 HuNoV", "value": "can enhance"},
      {"measurement": "fold induction at 500 µM", "setting": "TCH04-577 GII.3 HuNoV [1]", "value": "71 to 106"}
    ]},
    {"molecule": "CC(CCC(=O)NCC(=O)O)C1CCC2C3CCC4CC(O)CCC4(C)C3CC(O)C12C", "note": "(stereo not shown) [GDCA, glycodeoxycholic acid]", "values": [
      {"measurement": "fold induction at 500 µM", "setting": "TCH04-577 GII.3 HuNoV [1]", "value": 160}
    ]},
    {"molecule": "C[C@H](CCC(=O)NCCS(=O)(=O)O)[C@H]1CC[C@H]2[C@@H]3[C@H](O)C[C@@H]4C[C@H](O)CC[C@]4(C)[C@H]3C[C@H](O)[C@]12C", "note": "[TCA, Taurocholic acid]", "values": [
      {"measurement": "fold induction at 500 µM", "setting": "TCH04-577 GII.3 HuNoV [1]", "value": 65}
    ]},
    {"molecule": "C[C@H](CCC(=O)NCCS(=O)(=O)O)[C@H]1CC[C@H]2[C@@H]3[C@H](O)C[C@@H]4C[C@H](O)CC[C@]4(C)[C@H]3CC[C@]12C", "note": "[TCDCA, Taurochenodeoxycholic acid]", "values": [
      {"measurement": "Fold increase in viral genome copies compared to no bile (0-72 hpi)", "setting": "TCH04-577 GII.3 HuNoV [2]; bile acid 500 uM", "value": "48-103 fold"}
    ]},
    {"molecule": "C[C@H](CCC(=O)NCCS(=O)(=O)O)[C@H]1CC[C@H]2[C@@H]3CC[C@@H]4C[C@H](O)CC[C@]4(C)[C@H]3C[C@H](O)[C@]12C", "note": "[TDCA, Taurodeoxycholic acid]", "values": [
      {"measurement": "fold induction at 500 µM", "setting": "TCH04-577 GII.3 HuNoV [1]", "value": 95}
    ]},
    {"molecule": "C[C@H](CCC(=O)NCCS(=O)(=O)O)[C@H]1CC[C@H]2[C@@H]3CC[C@@H]4C[C@H](O)CC[C@]4(C)[C@H]3CC[C@]12C", "note": "[TLCA, taurolithocholic acid]", "values": [
      {"measurement": "fold induction at 500 µM", "setting": "TCH04-577 GII.3 HuNoV [1]", "value": 268}
    ]},
    {"molecule": "C[C@H](CCC(=O)NCCS(=O)(=O)O)[C@H]1CC[C@H]2[C@@H]3[C@@H](O)C[C@@H]4C[C@H](O)CC[C@]4(C)[C@H]3CC[C@]12C", "note": "[TUDCA, Tauroursodeoxycholic acid]", "values": [
      {"measurement": "replication of porcine enteric calicivirus", "setting": "[4]", "value": "did not enhance"},
      {"measurement": "fold induction at 500 µM", "setting": "TCH04-577 GII.3 HuNoV [1]", "value": 27}
    ]},
    {"molecule": "C[C@H](CCC(=O)O)[C@H]1CC[C@H]2[C@@H]3[C@@H](O)C[C@@H]4C[C@H](O)CC[C@]4(C)[C@H]3CC[C@]12C", "note": "[UDCA, ursodeoxycholic acid]", "values": [
      {"measurement": "Fold increase in viral genome copies compared to no bile (0-72 hpi)", "setting": "TCH04-577 GII.3 HuNoV [2]; bile acid 500 uM", "value": "no increase"}
    ]},
    {"molecule": "CN(C)CCC=C1c2ccccc2CCc2ccccc21", "note": "[amitriptyline]", "values": [
      {"measurement": "GII.3 replication", "setting": "TCH04-577 GII.3 HuNoV [5]", "value": "significantly reduced"},
      {"measurement": "dose dependence of the effect on GII.3 replication", "setting": "TCH04-577 GII.3 HuNoV [5]", "value": "dose-dependent decrease"}
    ]},
    {"molecule": "CN(C)CCCN1c2ccccc2Sc2ccc(Cl)cc21", "note": "[chlorpromazine]", "values": [
      {"measurement": "GII.3 replication", "setting": "TCH04-577 GII.3 HuNoV [5]", "value": "significantly reduced"},
      {"measurement": "dose dependence of the effect on GII.3 replication", "setting": "TCH04-577 GII.3 HuNoV [5]", "value": "dose-dependent decrease"}
    ]},
    {"molecule": "methyl-β-cyclodextrin", "values": [
      {"measurement": "GII.4 infection (VP1-positive cells per well)", "setting": "TCH11-64 GII.4 HuNoV", "value": "significantly reduced"}
    ]},
    {"molecule": "polymyxin B", "values": [
      {"measurement": "CPE", "setting": "GII.4/2012-1 HuNoV", "value": "not reduced"}
    ]},
    {"molecule": "trypsin: protease that cleaves proteins (protein, UniProt P00760 24-246, looked up) Serine protease 1: IVGGYTCGANTVPYQVSLNSGYHFCGGSLINSQWVVSAAHCYKSGIQVRLGEDNINVVEGNEQFISASKSIVHPSYNSNTLNNDIMLIKLKSAASLNSRVASISLPTSCASAGTQCLISGWGNTKSSGTSYPDVLKCLKAPILSDSSCKSAYPGQITSNMFCAGYLEGGKDSCQGDSGGPVVCSGKLQGIVSWGSGCAQKNKPGVYTKVCNYVSWIKQTIASN", "values": [
      {"measurement": "GII.4 infection (VP1-positive cells per well)", "setting": "TCH11-64 GII.4 HuNoV", "value": "reduced"},
      {"measurement": "HuNoV replication", "setting": "[6]", "value": "failed to enhance"}
    ]}
  ]
}
